In patent US20260258064A1 (SIRONAX LTD., priority 2023, published 2026):

These molecules were tested against T1, SARM1 (50-724) (Homo sapiens, UniProt Q6SZW1) (assay: SARM1 (50-724) enzymatic assay (LC-MS/MS)). Settings: Purified SARM1 (50-724) 2 nM, NMN as activator, NAD+ as substrate, 1 h at room temperature, read-out: IC50 (SARM1 inhibitory activity).
T1 construct: Purified SARM1 (50-724) with a final concentration of 2 nM was pre-incubated with a test compound
T1 sequence (Q6SZW1 50-724): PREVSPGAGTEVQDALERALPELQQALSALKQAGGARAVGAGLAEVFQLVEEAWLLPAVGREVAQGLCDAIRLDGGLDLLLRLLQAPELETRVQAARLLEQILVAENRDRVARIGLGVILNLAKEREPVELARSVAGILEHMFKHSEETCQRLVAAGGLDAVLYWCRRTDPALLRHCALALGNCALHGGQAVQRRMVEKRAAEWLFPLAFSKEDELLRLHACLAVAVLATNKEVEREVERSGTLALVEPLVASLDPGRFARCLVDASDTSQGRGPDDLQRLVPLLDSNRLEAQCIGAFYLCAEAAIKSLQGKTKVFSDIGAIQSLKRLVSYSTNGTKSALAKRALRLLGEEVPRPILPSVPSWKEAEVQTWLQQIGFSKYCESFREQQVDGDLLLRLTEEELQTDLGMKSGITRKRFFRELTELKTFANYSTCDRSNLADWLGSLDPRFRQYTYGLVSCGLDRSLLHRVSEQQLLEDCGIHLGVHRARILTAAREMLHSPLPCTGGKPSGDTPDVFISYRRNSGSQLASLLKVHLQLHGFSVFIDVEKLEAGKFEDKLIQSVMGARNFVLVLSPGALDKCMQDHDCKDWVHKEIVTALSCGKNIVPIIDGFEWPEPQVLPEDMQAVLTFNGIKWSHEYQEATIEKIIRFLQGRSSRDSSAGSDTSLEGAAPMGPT
Assay type: biochemical
Method in brief: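 Human SARM1 (50-724), 2 nM, pre-incubated 15 min at room temperature with compound in Dulbecco's PBS. Reaction started with 200 µM NMN (activator) plus […] NAD^+ substrate, run 1 h at room temperature, quenched with 70% acetonitrile. Turnover quantified by LC-MS/MS; IC50 reported.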

Compound	IC50 [nM]
COc1cc(F)c2[nH]c(-c3nncn3-c3cnccc3C(F)(F)F)nc2c1 [Compound 328, 7-fluoro-5-methoxy-2-(4-(4-(trifluoromethyl)pyridin-3-yl)-4H-1,2,4-triazol-3-yl)-1H-benzo[d]imidazole]	≤ 100
NC(=O)c1ncc(-c2nc3cc(C(F)(F)F)ccc3[nH]2)n1-c1cccc(Cl)c1Cl [Example 89, 1-(2,3-dichlorophenyl)-5-(5-(trifluoromethyl)-1H-benzo[d]imidazol-2-yl)-1H-imidazole-2-carboxamide]	100 to 500
Cc1ccn(-c2cc(F)c3[nH]c(-c4nncn4-c4cnccc4C(F)(F)F)nc3c2)n1 [Compound 401, 7-fluoro-5-(3-methyl-1H-pyrazol-1-yl)-2-(4-(4-(trifluoromethyl)pyridin-3-yl)-4H-1,2,4-triazol-3-yl)-1H-benzo[d]imidazole]	≤ 100
Cn1cc(-c2ccccc2)c(-c2nc3cc(C(F)(F)F)ccc3[nH]2)cc1=O [Example 86]	> 1000
O=C1CN(c2ccccc2)C(c2nc3cc(C(F)(F)F)ccc3[nH]2)CN1 (stereo not shown) [Compound 369, 4-phenyl-5-(5-(trifluoromethyl)-1H-benzo[d]imidazol-2-yl)piperazin-2-one]	> 1000
CN(CCCC(N)=O)c1cc(F)c2[nH]c(-c3nncn3-c3cnccc3C(F)(F)F)nc2c1 [Compound 455, 4-((4-fluoro-2-(4-(4-(trifluoromethyl)pyridin-3-yl)-4H-1,2,4-triazol-3-yl)-1H-benzo[d]imidazol-6-yl)(methyl)amino)butanamide]	≤ 100
Fc1cc(C(F)F)cc2nc(-c3nncn3-c3cnccc3C(F)(F)F)[nH]c12 [Compound 467, 6-(difluoromethyl)-4-fluoro-2-(4-(4-(trifluoromethyl)pyridin-3-yl)-4H-1,2,4-triazol-3-yl)-1H-benzo[d]imidazole]	≤ 100
Cc1ccc2[nH]c(-n3[nH]c(=O)nc3-c3cccc(Cl)c3Cl)nc2c1 [Compound 26, 5-(2,3-dichlorophenyl)-1-(5-methyl-1H-benzo[d]imidazol-2-yl)-1,2-dihydro-3H-1,2,4-triazol-3-one]	> 1000
Cc1ccc2[nH]c(-c3ccnn3C3CCCC3)nc2c1 [Compound 4, 2-(2-cyclopentylpyrazol-3-yl)-5-methyl-1H-benzimidazole]	500 to 1000
Cc1ccc2[nH]c(-c3c(CO)ccn3C3CCCC3)nc2c1 [Compound 17, (1-cyclopentyl-2-(5-methyl-1H-benzo[d]imidazol-2-yl)-1H-pyrrol-3-yl)methanol]	> 1000
Cc1ccc2[nH]c(-n3c(-c4cccc(Cl)c4Cl)noc3=O)nc2c1 [Compound 29, 3-(2,3-dichlorophenyl)-4-(5-methyl-1H-benzo[d]imidazol-2-yl)-1,2,4-oxadiazol-5 (4H)-one]	> 1000
CCS(=O)(=O)Cc1nnc(-c2nc3cc(Cl)cc(F)c3[nH]2)n1-c1cccc(F)c1Cl [Compound 193, 5-chloro-2-(4-(2-chloro-3-fluorophenyl)-5-((ethylsulfonyl)methyl)-4H-1,2,4-triazol-3-yl)-7-fluoro-1H-benzo[d]imidazole]	≤ 100
FC(F)(F)c1ccc2[nH]c(-c3scnc3-c3cccc(Cl)c3Cl)nc2c1 [Example 42]	500 to 1000
Cn1cc(-c2cccc(Cl)c2Cl)c(-c2nc3cc(C(C)(C)O)ccc3[nH]2)cc1=O [Example 83, 5-(2,3-Dichlorophenyl)-4-(5-(2-hydroxypropan-2-yl)-1H-benzo[d]imidazol-2-yl)-1-methylpyridin-2 (1H)-one]	> 1000
Fc1cc(OC(F)F)cc2nc(-c3nncn3-c3cnccc3C(F)(F)F)[nH]c12 [Compound 293, 5-(difluoromethoxy)-7-fluoro-2-(4-(4-(trifluoromethyl)pyridin-3-yl)-4H-1,2,4-triazol-3-yl)-1H-benzo[d]imidazole]	≤ 100
O=c1cc(-c2nc3cc(C(F)(F)F)ccc3[nH]2)c(-c2cccc(Cl)c2Cl)cn1CCO [Example 64]	≤ 100
CC(Cc1nccs1)c1cc(F)c2[nH]c(-c3nncn3-c3cnccc3C(F)(F)F)nc2c1 (stereo not shown) [Compound 465, 2-(2-(7-fluoro-2-(4-(4-(trifluoromethyl)pyridin-3-yl)-4H-1,2,4-triazol-3-yl)-1H-benzo[d]imidazol-5-yl)propyl)thiazole]	≤ 100
CS(=O)(=O)Cc1c(-c2nncn2-c2cnccc2C(F)(F)F)[nH]c2ccc(C(F)(F)F)cc12 [Compound 385, 3-(methylsulfonylmethyl)-5-(trifluoromethyl)-2-[4-[4-(trifluoromethyl)-3-pyridyl]-1,2,4-triazol-3-yl]-1H-indole]	≤ 100
OCC(F)(F)COc1ccc(OC(F)(F)F)c(-n2cnnc2-c2nc3cc(C(F)(F)F)ccc3[nH]2)n1 [Compound 251, 2,2-difluoro-3-((5-(trifluoromethoxy)-6-(3-(5-(trifluoromethyl)-1H-benzo[d]imidazol-2-yl)-4H-1,2,4-triazol-4-yl)pyridin-2-yl)oxy)propan-1-ol]	≤ 100

Results, then the molecule that gave them:

IC50 [nM]	Compound
≤ 100	NC(=O)c1cc(-n2cnnc2-c2nc3cc(C(F)(F)F)ccc3[nH]2)c(Cl)cn1 [Compound 211, 5-chloro-4-(3-(5-(trifluoromethyl)-1H-benzo[d]imidazol-2-yl)-4H-1,2,4-triazol-4-yl)picolinamide]
≤ 100	C[S+]([O-])Cc1nnc(-c2nc3cc(C(F)(F)F)ccc3[nH]2)n1-c1cccc(Cl)c1Cl (single isomer, unassigned) [Compound 147, 2-(4-(2,3-dichlorophenyl)-5-((methylsulfinyl)methyl)-4H-1,2,4-triazol-3-yl)-5-(trifluoromethyl)-1H-benzo[d]imidazole]
100 to 500	FC(F)(F)c1ccc2[nH]c(-c3nncn3-c3c(Cl)cccc3-c3ccn[nH]3)nc2c1 [Compound 168, 2-(4-(2-chloro-6-(1H-pyrazol-5-yl)phenyl)-4H-1,2,4-triazol-3-yl)-5-(trifluoromethyl)-1H-benzo[d]imidazole]
> 1000	FC(F)(F)c1ccc2[nH]c(-c3nnc(OC4CSC4)n3-c3cccc(Cl)c3Cl)nc2c1 [Compound 131]
100 to 500	CN(c1ccc2[nH]c(-c3nncn3-c3cnccc3C(F)(F)F)nc2c1)S(C)(=O)=O [Compound 341, N-methyl-N-[2-[4-[4-(trifluoromethyl)-3-pyridyl]-1,2,4-triazol-3-yl]-1H-benzimidazol-5-yl]methanesulfonamide]
≤ 100	OCCc1cc(-n2cnnc2-c2nc3cc(C(F)(F)F)ccc3[nH]2)c(OC(F)(F)F)cn1 [Compound 265]
100 to 500	CN1CCC(C)(c2ccc3[nH]c(-c4nncn4-c4ccc(F)c(F)c4Cl)nc3c2)C1=O (stereo not shown) [Compound 165, 3-(2-(4-(2-chloro-3,4-difluorophenyl)-4H-1,2,4-triazol-3-yl)-1H-benzo[d]imidazol-5-yl)-1,3-dimethylpyrrolidin-2-one]
100 to 500	N#CC1(c2cccc3[nH]c(-c4nncn4-c4cnccc4C(F)(F)F)nc23)CC1 [Compound 442, 1-(2-(4-(4-(trifluoromethyl)pyridin-3-yl)-4H-1,2,4-triazol-3-yl)-1H-benzo[d]imidazol-4-yl)cyclopropane-1-carbonitrile]
≤ 100	FC(F)(F)c1ccc2[nH]c(-c3nncn3-c3cnccc3C(F)(F)F)nc2c1 [Compound 225, 5-(Trifluoromethyl)-2-(4-(4-(trifluoromethyl)pyridin-3-yl)-4H-1,2,4-triazol-3-yl)-1H-benzo[d]imidazole]
≤ 100	OC1(c2ccc3[nH]c(-c4nncn4-c4ccc(F)c(F)c4Cl)nc3c2)CC1 [Example 134]
≤ 100	Oc1cc(F)c(Cl)c(-n2cnnc2-c2nc3cc(C(F)(F)F)ccc3[nH]2)c1 [Compound 207, 4-chloro-3-fluoro-5-(3-(5-(trifluoromethyl)-1H-benzo[d]imidazol-2-yl)-4H-1,2,4-triazol-4-yl)phenol]
≤ 100	C#Cc1cc(-n2cnnc2-c2nc3cc(C(F)(F)F)ccc3[nH]2)c(OC(F)(F)F)cn1 [Compound 226, 2-(4-(2-ethynyl-5-(trifluoromethoxy)pyridin-4-yl)-4H-1,2,4-triazol-3-yl)-5-(trifluoromethyl)-1H-benzo[d]imidazole]
100 to 500	Clc1cccc(-n2cnnc2-c2nc3cc(-c4cncnc4)ccc3[nH]2)c1Cl [Example 73, 2-(4-(2,3-dichlorophenyl)-4H-1,2,4-triazol-3-yl)-5-(pyrimidin-5-yl)-1H-benzo[d]imidazole]
100 to 500	CSc1nnc(-c2nc3cc(C(F)(F)F)ccc3[nH]2)n1-c1cccc(Cl)c1Cl [Compound 116]
≤ 100	CN(C)c1cc(F)c2[nH]c(-c3nncn3-c3cnccc3C(F)(F)F)nc2c1 [Compound 297, 7-fluoro-N,N-dimethyl-2-(4-(4-(trifluoromethyl)pyridin-3-yl)-4H-1,2,4-triazol-3-yl)-1H-benzo[d]imidazol-5-amine]
